Drawing on US4547508A, “1-Phenylisoquinoline derivatives, pharmaceutical products containing these compounds and their use” (Hoechst Aktiengesellschaft, priority 1982, dated 1985), this text covers ED50, IC50 and LD50 for twelve compounds.

Data set [1] deals with tetrabenazine-induced ptosis. The data set can be described thus: Prevention of the ptosis induced by tetrabenazine in mice after intraperitoneal administration. Format: in vivo, male mice (Gassner, NMRI). The conditions noted are these: ip; mouse, i.p., 30 minutes before TBZ 40 mg/kg i.p.; dose which reduces the mean ptosis index (maximum 4) by 50%. The procedure:
B. Prevention of the ptosis induced by tetrabenazine in mice after intraperitoneal administration
The experimental animals used were male mice (Gassner, NMRI) of body weight 20-26 g. 5 animals were tested in each group. The compounds were suspended in 1% strength methylhydroxyethylcellulose and administered intraperitoneally (i.p.) to the animals in a volume of 10 ml/kg of body weight. The compounds according to the invention were tested in doses of 5, 10 and 20 mg/kg i.p. The control group merely received 10 ml/kg of MH not containing active ingredient i.p.
The componds were administered to the animals 30 minutes before the i.p. administration of tetrabenazine (TBZ). The control group merely received 1% strength MH and TBZ in accordance with the same schedule as that for the animals treated with the test substances.
30 minutes after the TBZ injection (TBZ: 40 mg/kg i.p.), the animals were placed in individual plastic boxes and the ptosis was assessed 1 minute later in accordance with the scheme below:
Eyes closed = 4 (100% ptosis)
Eyes 3/4 closed = 3 (75% ptosis)
Eyes 1/2 closed = 2 (50% ptosis)
Eyes 1/4 closed = 1 (25% ptosis)
Eyes open = 0 (0% ptosis)
The dose defined as the ED50 is that which reduces the mean ptosis index (maximum 4) by 50%.

Data set [2] relates to norepinephrine uptake (synaptosomes from rat brain). The data set can be described thus: Inhibition of reuptake of norepinephrine in synaptosomes. Format: biochemical. The settings on record: 14C-norepinephrine, pH 7.4, 37° C., 4 minutes. The procedure:
C. Inhibition of reuptake of norepinephrine in synaptosomes
Synaptosomes from rat brain were isolated by the method of Whittaker (Handbook of Neurochemistry 2, 327-364, Editor A. Lajtha; London and New York, 1969) and the uptake of monoamine was measured by the method of Schacht and Heptner (Biochemical Pharmac. 23, 3413-3422). The ^14 C-norepinephrine uptake was measured in a Krebs-Henseleit bicarbonate buffer pH 7.4 which contained 11 millimoles of glucose. 2.5 ml of the suspension of synaptosomes were incubated with labeled norepinephrine at 37° C. in the presence or absence of the test substance. The incubation time was 4 minutes. Further uptake was then stopped by cooling in ice. In order to exclude non-specific adsorption, control samples were incubated at 0° C. under otherwise identical conditions.
The amounts of norepinephrine taken up were measured using the membrane filtration technique using a Millipore sampling manifold with cellulose nitrate filters of 25 mm diameter and 0.6 micrometer pore size. The synaptosomes were collected under reduced pressure and the radioactivity was determined in a Packard Tricarb scintillation counter. The amount of collected norepinephrine has been reported as a percentage of the radioactivity which was added to the incubation mixture.
The IC50 values (inhibition concentration) in the Table 1 below indicate the concentration of the test substances which show 50% inhibition of the uptake of ^14 C-norepinephrine.

A short description of data set [3]: Acute toxicity in the mouse after intraperitoneal administration (ALD50). The settings on record: in vivo, ip, deaths within 24 hours after administration. Also on record: species or system male mice (Gassner, NMRI). The procedure:
A. Acute toxicity in the mouse after intraperitoneal administration (ALD50)
The experimental animals used were male mice (Gassner, NMRI) of body weight 20-30 g. 6 animals were tested in each group. The compounds were suspended in 1% strength methylhydroxyethylcellulose (MH) and administered intraperitoneally (i.p.) to the animals in a volume of 10 ml/kg of body weight. The compounds according to the invention were administered in doses of 3, 10, 30 and 100 mg/kg i.p.
The acute lethal dose (ALD50) was determined graphically from the number of animals which died within 24 hours after administration of the compound.

In general, ED50 refers to the midpoint of the dose-response relation. For orientation: IC50 means the point on the concentration scale where inhibition reaches its midpoint. A low value points to higher potency. A word on the LD50: it is the dose expected to kill half of the subjects tested. Read a high LD50 as a less toxic substance.

Take `Cc1ccccc1-c1nc(C2=CCNCC2)cc2ccccc12` [Example 3, 1-(2-Methylphenyl)-3-(1,2,5,6-tetrahydro-4-pyridyl)isoquinoline]: the 50% effect level in data set [1] (ED50) was put at a dose of 0.13 mg/kg. In data set [2], this compound displayed a concentration for half-maximal inhibition (IC50) of 5.6 nM. In data set [3], the LD50 at 24 h turned out to be 210 mg/kg.

In data set [1], `Cc1ccccc1-c1nc(C2CCN(C)CC2)cc2ccccc12` [Example 27] displayed an ED50 of 0.53 mg/kg. Also, the LD50 at 24 h in data set [3] came out at 27 mg/kg.

`C1=C(c2cc3ccccc3c(-c3ccccc3)n2)CNCC1` [Example 20]: it took a dose of 0.33 mg/kg to reach the 50% effect level in data set [1] (ED50). Moreover, in data set [2], the IC50 amounted to 13 nM. Also, the LD50 at 24 h in data set [3] was 75 mg/kg.

`CCN1CC=C(c2cc3ccccc3c(-c3ccccc3C)n2)CC1` [Example 2, 3-(1-Ethyl-1,2,5,6-tetrahydro-4-pyridyl)-1-(2-methylphenyl)isoquinoline] came in with an ED50 in data set [1] of 1.4 mg/kg. The same compound had an LD50 at 24 h in data set [3] of 100 mg/kg.

Consider `c1ccc(-c2nc(C3CCNCC3)cc3ccccc23)cc1` [Example 21, 1-Phenyl-3-(4-piperidinyl)isoquinoline], for which, in data set [1], the 50% effective dose (ED50) was 0.8 mg/kg. Also, in data set [2], the IC50 was determined as 17 nM. The LD50 at 24 h in data set [3] was 75 mg/kg.

In turn, `C1=C(c2cc3ccccc3c(-c3ccccc3)n2)CCNC1` [Example 13] gave an ED50 in data set [1] of 0.5 mg/kg. The IC50 in data set [2] was 6.2 nM. Besides, the LD50 at 24 h in data set [3] is 300 mg/kg.

`CN1CCC(c2cc3ccccc3c(-c3ccccc3)n2)CC1` [Example 25] displayed an ED50 in data set [1] of 6.59 mg/kg. Besides, in data set [3], the LD50 at 24 h worked out at 28 mg/kg.

As to `C=CCN1CC=C(c2cc3ccccc3c(-c3ccccc3C)n2)CC1` [Example 11], the ED50 in data set [1] was 0.49 mg/kg. Moreover, the median lethal dose (LD50) at 24 h in data set [3] worked out at 300 mg/kg.

In turn, `C=CCN1CCC(c2cc3ccccc3c(-c3ccccc3C)n2)CC1` [Example 23, 3-(1-Allyl-4-piperidinyl)-1-(2-methylphenyl)isoquinoline] had an ED50 in data set [1] of 3 mg/kg. This compound returned an LD50 at 24 h in data set [3] of 55 mg/kg.

In data set [1], `CN1CC=C(c2cc3ccccc3c(-c3ccccc3Cl)n2)CC1` [Example 6] displayed an ED50 of 0.79 mg/kg. In addition, half-maximal inhibition in data set [2] (IC50) required 33 nM. This compound registered an LD50 at 24 h in data set [3] of 100 mg/kg.

In data set [1], `CN1CC=C(c2cc3ccccc3c(-c3ccccc3F)n2)CC1` [Example 8] came in with a 50% effective dose (ED50) of 0.54 mg/kg. This compound showed an IC50 in data set [2] of 10 nM. For the same compound, in data set [3], the LD50 at 24 h was determined as 85 mg/kg.

In the case of `CN1CCC=C(c2cc3ccccc3c(-c3ccccc3)n2)C1` [Example 19], the 50% effect level in data set [1] (ED50) was put at a dose of 3.3 mg/kg. Further, half-maximal inhibition in data set [2] (IC50) was put at 50 nM. For the same compound, in data set [3], the LD50 at 24 h turned out to be 40 mg/kg.
